Data published in article PMC5378332, “Molecular actions of two synthetic brassinosteroids, iso-carbaBL and 6-deoxoBL, which cause altered physiological activities between Arabidopsis and rice” (PLoS ONE, 2017).

What was measured:
[1] = target: T1, Arabidopsis BRI1 LRR21-ID-LRR22 (Arabidopsis thaliana, UniProt O22476); test: competition with BPCS photoaffinity crosslinking, anti-biotin immunoblot; type: binding; details: dose-dependent competition; GST-normalised
T1 construct: extracellular LRR21-island domain-LRR22 fragment, amino acids 556-673; N-terminal GST fusion from pGEX6P-1, GST kept; glutathione-Sepharose purified
T1 sequence (O22476 556-673): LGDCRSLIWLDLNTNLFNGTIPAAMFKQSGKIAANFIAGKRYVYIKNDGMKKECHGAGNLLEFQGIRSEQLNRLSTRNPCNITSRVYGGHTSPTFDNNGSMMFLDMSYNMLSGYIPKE

rice BRI1 LRR17-ID-LRR18 = target: T2, rice BRI1 LRR17-ID-LRR18 (Oryza sativa, UniProt Q942F3); test: as above; type: binding; details: dose-dependent competition; GST-normalised
T2 construct: extracellular LRR17-island domain-LRR18 fragment, amino acids 484-600; N-terminal GST fusion from pGEX6P-1, GST kept; glutathione-Sepharose purified
T2 sequence (Q942F3 484-600): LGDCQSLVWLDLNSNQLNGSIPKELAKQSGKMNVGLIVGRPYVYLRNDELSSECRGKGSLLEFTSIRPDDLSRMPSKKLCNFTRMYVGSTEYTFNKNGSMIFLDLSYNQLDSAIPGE

Compound	competition with BPCS photoaffinity crosslinking, anti-biotin immunoblot [1]	competition with BPCS photoaffinity crosslinking, anti-biotin immunoblot (rice BRI1 LRR17-ID-LRR18)
CC(C)[C@H](C)[C@@H](O)[C@H](O)[C@@H](C)[C@H]1CC[C@H]2[C@@H]3CC(=O)C[C@H]4C[C@@H](O)[C@@H](O)C[C@]4(C)[C@H]3CC[C@]12C [iso-carbaBL]	decreased the binding of BPCS not only to Arabidopsis BRI1, but also to rice BRI1	decreased the binding of BPCS not only to Arabidopsis BRI1, but also to rice BRI1
CC(C)[C@H](C)[C@@H](O)[C@H](O)[C@@H](C)[C@H]1CC[C@H]2[C@@H]3COC(=O)[C@H]4C[C@H](O)[C@H](O)C[C@]4(C)[C@H]3CC[C@]12C [BL, (22R,23R,24S)-2α,3α,22,23-tetrahydroxy-24-methyl-B-homo7-oxa-5α-cholestan-6-one]	–	BL, the positive control, inhibited the binding of BPCS to both Arabidopsis and rice BRI1
